The results in this text go back to ChEMBL document CHEMBL6127107, “Oleanolic acid derivatives against drug-resistant bacteria and fungi by multi-targets to avoid drug resistance” (Eur J Med Chem, 2024).

In brackets after ≈: the same amount, converted by molar mass. Activity calls are given as the source filed them. The calls are words filed in the database; no cut-off is given here.

For data set [1], the system named is Staphylococcus aureus. Briefly: Antimicrobial activity against Staphylococcus aureus 10. The data set is classed as functional.
In the next data set the test system is Escherichia coli. The data set can be described thus: Antimicrobial activity against Escherichia coli. The data set is classed as functional.
The next data set deals with Pseudomonas aeruginosa. The data set can be described thus: Antimicrobial activity against Pseudomonas aeruginosa. It counts as functional.
Data set [2] in a line: Hemolytic activity against Mianyang red blood cells (unknown origin). The data set is classed as toxicity, cell-based, RBC.
A short description of data set [3]: Selectivity index, ratio of HC50 for hemolytic activity against Mianyang red blood cells (unknown origin) to MIC for antimicrobial activity against methicillin resistant Staphylococcus aureus 003. The conditions noted are these: read-out: Selectivity Index. It counts as toxicity, cell-based, RBC.
The test system of data set [4] is Staphylococcus aureus. The data set can be described thus: Antimicrobial activity against methicillin-resistant Staphylococcus aureus 011. It counts as functional.
Data set [5] deals with Staphylococcus aureus. The data set can be described thus: Antimicrobial activity against Staphylococcus aureus 31. The data set is classed as functional.
Data set [6] has as its system Staphylococcus aureus. Briefly: Antimicrobial activity against methicillin-resistant Staphylococcus aureus 003. The data set is classed as functional.
The subject of another data set is Enterococcus faecalis. Briefly: Antimicrobial activity against vancomycin resistant Enterococcus faecalis ATCC 51299. The data set is classed as functional.
A further data set has as its system Candida albicans. The data set can be described thus: Antimicrobial activity against fluconazole-resistant Candida albicans. The data set is classed as functional.
Data set [7] has as its system Staphylococcus aureus. The data set can be described thus: Antimicrobial activity against Staphylococcus aureus 29. It counts as functional.
Data set [8] deals with Staphylococcus aureus. The data set can be described thus: Drug resistance, ratio of MIC for methicillin-resistant Staphylococcus aureus measured after 20 days of continuous passage to MIC for methicillin-resistant Staphylococcus aureus measured after first exposure. The data set is classed as functional.
Data set [9] concerns Staphylococcus aureus. Briefly: Antibacterial activity against methicillin-resistant Staphylococcus aureus infected in cyclophosphamide-injected Kunming mouse model of skin wound infection assessed as wound repair by measuring reduction in wound area at 4 mg/kg measured for 7 days by photographic analysis. It counts as functional, organism-based. The settings on record: time 7.0 day.

In data set [10] the test system is Staphylococcus aureus. Briefly: Antibacterial activity against methicillin-resistant Staphylococcus aureus infected in cyclophosphamide-injected Kunming mouse model of skin wound infection assessed as reduction in bacterial load in skin at 4 mg/kg measured after 7 days. It counts as functional. The settings on record: time 7 day.

By MIC is commonly meant the lowest concentration found to suppress growth. Usually HC50 stands for the concentration that lyses half of the red blood cells. A high value points to weaker haemolysis. As to `CC(=O)O[C@H]1CC[C@]2(C)[C@H]3CC=C4[C@@H]5CC(C)(C)CC[C@]5(C(=O)NCCCN)CC[C@@]4(C)[C@]3(C)CC[C@H]2C1(C)C`, the MIC against Staphylococcus aureus [1] is 4 µg/mL (≈ 7.21 µM); in the data set on Escherichia coli, greater than 64 µg/mL; against Pseudomonas aeruginosa, greater than 64 µg/mL; against Staphylococcus aureus [4], 2 µg/mL (≈ 3.6 µM); in the data set on Staphylococcus aureus [5], 8 µg/mL (≈ 14.4 µM); with Staphylococcus aureus [6], 2 µg/mL (≈ 3.6 µM). For the same molecule, the MIC in the data set with Enterococcus faecalis came to 4 µg/mL (≈ 7.21 µM); against Candida albicans it was 2 µg/mL (≈ 3.6 µM); with Staphylococcus aureus [7], 4 µg/mL (≈ 7.21 µM). This molecule registered an HC50 in [2] of 78.5 µg/mL. The selectivity ratio in data set [3] was 39.2.
As to `CCn1cc(C(=O)O)c(=O)c2cc(F)c(N3CCNCC3)cc21` [NORFLOXACIN], the Ratio with Staphylococcus aureus [8] was 32.
In the case of `CC1(C)CC[C@]2(C(=O)O)CC[C@]3(C)C(=CC[C@@H]4[C@@]5(C)CC[C@H](OC(=O)CCC(=O)O)C(C)(C)[C@@H]5CC[C@]43C)[C@@H]2C1` [OLEANOLIC ACID 3-O-SUCCINATE], the MIC in the data set on Staphylococcus aureus [1] was 16 µg/mL (≈ 28.7 µM); in the data set with Escherichia coli it was greater than 64 µg/mL; against Pseudomonas aeruginosa, greater than 64 µg/mL; against Staphylococcus aureus [4], 16 µg/mL (≈ 28.7 µM); against Staphylococcus aureus [5] it was 32 µg/mL (≈ 57.5 µM); with Staphylococcus aureus [6] it was 16 µg/mL (≈ 28.7 µM). Also, the MIC against Enterococcus faecalis amounted to 32 µg/mL (≈ 57.5 µM); against Candida albicans, 32 µg/mL (≈ 57.5 µM); in the data set with Staphylococcus aureus [7] it was 8 µg/mL (≈ 14.4 µM). This molecule showed an HC50 in data set [2] greater than 1020 µg/mL. For the same molecule, the selectivity ratio in data set [3] was greater than 64.
As to `CC1(C)CC[C@]2(C(=O)O)CC[C@]3(C)C(=CC[C@@H]4[C@@]5(C)CC[C@H](OCC(O)CCCCN)C(C)(C)[C@@H]5CC[C@]43C)[C@@H]2C1` (some centres undefined), the MIC with Staphylococcus aureus [1] is 4 µg/mL (≈ 6.99 µM); against Escherichia coli, greater than 64 µg/mL; in the data set on Pseudomonas aeruginosa it was greater than 64 µg/mL; in the data set on Staphylococcus aureus [4] it was 4 µg/mL (≈ 6.99 µM); in the data set with Staphylococcus aureus [5], 8 µg/mL (≈ 14 µM); with Staphylococcus aureus [6], 4 µg/mL (≈ 6.99 µM). The MIC in the data set with Enterococcus faecalis was 8 µg/mL (≈ 14 µM); in the data set with Candida albicans, 16 µg/mL (≈ 28 µM); in the data set on Staphylococcus aureus [7], 4 µg/mL (≈ 6.99 µM). The same molecule yielded an HC50 in data set [2] of 26.1 µg/mL. Besides, the selectivity ratio in data set [3] amounted to 6.54.
Consider `CC(=O)O[C@H]1CC[C@]2(C)[C@H]3CC=C4[C@@H]5CC(C)(C)CC[C@]5(C(=O)NCCCCNC(=N)N)CC[C@@]4(C)[C@]3(C)CC[C@H]2C1(C)C`, for which the MIC against Staphylococcus aureus [1] is 2 µg/mL (≈ 3.27 µM); in the data set with Escherichia coli, greater than 64 µg/mL; in the data set with Pseudomonas aeruginosa, greater than 64 µg/mL; against Staphylococcus aureus [4], 2 µg/mL (≈ 3.27 µM); with Staphylococcus aureus [5], 4 µg/mL (≈ 6.55 µM); in the data set with Staphylococcus aureus [6], 2 µg/mL (≈ 3.27 µM). Further, the MIC in the data set with Enterococcus faecalis, in the data set with Candida albicans and against Staphylococcus aureus [7] was 2 µg/mL (≈ 3.27 µM) each time. The same molecule registered an HC50 in data set [2] of 284 µg/mL. Moreover, in data set [3], the selectivity ratio is 142.
Take `CC1(C)CC[C@]2(C(=O)O)CC[C@]3(C)C(=CC[C@@H]4[C@@]5(C)CC[C@H](OCC(O)CCCCNC(=N)N)C(C)(C)[C@@H]5CC[C@]43C)[C@@H]2C1` (some centres undefined): the MIC with Staphylococcus aureus [1] is 8 µg/mL (≈ 13 µM); in the data set with Escherichia coli it was greater than 64 µg/mL; in the data set with Pseudomonas aeruginosa, greater than 64 µg/mL; in the data set with Staphylococcus aureus [4], 2 µg/mL (≈ 3.26 µM); with Staphylococcus aureus [5], 8 µg/mL (≈ 13 µM); in the data set on Staphylococcus aureus [6], 2 µg/mL (≈ 3.26 µM). In addition, the MIC with Enterococcus faecalis was 4 µg/mL (≈ 6.52 µM); with Candida albicans, 4 µg/mL (≈ 6.52 µM); against Staphylococcus aureus [7] it was 8 µg/mL (≈ 13 µM). For the same molecule, the HC50 in data set [2] stood at 660 µg/mL. Also, the selectivity ratio in [3] came to 330.
Consider `CC1(C)CC[C@]2(C(=O)O)CC[C@]3(C)C(=CC[C@@H]4[C@@]5(C)CC[C@H](OC(=O)CCCC(=O)O)C(C)(C)[C@@H]5CC[C@]43C)[C@@H]2C1`, for which the MIC was 32 µg/mL (≈ 56.1 µM) in the data set on Staphylococcus aureus [1]; greater than 64 µg/mL in the data set with Escherichia coli; greater than 64 µg/mL with Pseudomonas aeruginosa; 32 µg/mL (≈ 56.1 µM) with Staphylococcus aureus [4]; 64 µg/mL (≈ 112 µM) with Staphylococcus aureus [5]; 32 µg/mL (≈ 56.1 µM) with Staphylococcus aureus [6]. Further, the MIC against Enterococcus faecalis, in the data set on Candida albicans and with Staphylococcus aureus [7] was 32 µg/mL (≈ 56.1 µM) each time. In [2], this molecule gave an HC50 greater than 1020 µg/mL. The selectivity ratio in data set [3] was greater than 32.
Consider `CC(=O)O[C@H]1CC[C@]2(C)[C@H]3CC=C4[C@@H]5CC(C)(C)CC[C@]5(C(=O)NCCCCCCCCNC(=N)N)CC[C@@]4(C)[C@]3(C)CC[C@H]2C1(C)C`, for which the MIC in the data set on Staphylococcus aureus [1] was 4 µg/mL (≈ 6 µM); against Escherichia coli, greater than 64 µg/mL; with Pseudomonas aeruginosa, greater than 64 µg/mL; in the data set on Staphylococcus aureus [4], 2 µg/mL (≈ 3 µM); against Staphylococcus aureus [5], 16 µg/mL (≈ 24 µM); in the data set on Staphylococcus aureus [6], 4 µg/mL (≈ 6 µM). Moreover, the MIC in the data set on Enterococcus faecalis was found to be 8 µg/mL (≈ 12 µM); against Candida albicans, 16 µg/mL (≈ 24 µM); in the data set on Staphylococcus aureus [7] it was 4 µg/mL (≈ 6 µM). In data set [2], this molecule had an HC50 of 232 µg/mL. For the same molecule, in data set [3], the selectivity ratio stood at 57.9.
Take `CC1(C)CC[C@]2(C(=O)O)CC[C@]3(C)C(=CC[C@@H]4[C@@]5(C)CC[C@H](OCC(O)CCCCCCCCN)C(C)(C)[C@@H]5CC[C@]43C)[C@@H]2C1` (some centres undefined): the minimum inhibitory concentration (MIC) is 8 µg/mL (≈ 12.7 µM) in the data set with Staphylococcus aureus [1]; greater than 64 µg/mL in the data set on Escherichia coli; greater than 64 µg/mL against Pseudomonas aeruginosa; 8 µg/mL (≈ 12.7 µM) with Staphylococcus aureus [4]; 32 µg/mL (≈ 51 µM) in the data set on Staphylococcus aureus [5]; 8 µg/mL (≈ 12.7 µM) in the data set with Staphylococcus aureus [6]. For the same molecule, the MIC against Enterococcus faecalis is 16 µg/mL (≈ 25.5 µM); against Candida albicans it was 32 µg/mL (≈ 51 µM); in the data set on Staphylococcus aureus [7], 8 µg/mL (≈ 12.7 µM). This molecule also came in with an HC50 in data set [2] of 25.2 µg/mL. In addition, in data set [3], the selectivity ratio came out at 3.15.
Turning to `CC1(C)CC[C@]2(C(=O)O)CC[C@]3(C)C(=CC[C@@H]4[C@@]5(C)CC[C@H](OCC(O)CCCCCCCCNC(=N)N)C(C)(C)[C@@H]5CC[C@]43C)[C@@H]2C1` (some centres undefined), the MIC is 8 µg/mL (≈ 11.9 µM) in the data set with Staphylococcus aureus [1]; greater than 64 µg/mL with Escherichia coli; greater than 64 µg/mL in the data set on Pseudomonas aeruginosa; 4 µg/mL (≈ 5.97 µM) against Staphylococcus aureus [4]; 16 µg/mL (≈ 23.9 µM) with Staphylococcus aureus [5]; 8 µg/mL (≈ 11.9 µM) with Staphylococcus aureus [6]. For the same molecule, the figures for the MIC against Enterococcus faecalis, with Candida albicans and in the data set on Staphylococcus aureus [7] were 8 µg/mL (≈ 11.9 µM), 16 µg/mL (≈ 23.9 µM) and 8 µg/mL (≈ 11.9 µM), respectively. For the same molecule, in [2], the HC50 was found to be 577 µg/mL. In data set [3], the selectivity ratio turned out to be 72.1.
In the case of `CN[C@H](CC(C)C)C(=O)N[C@H]1C(=O)N[C@@H](CC(N)=O)C(=O)N[C@H]2C(=O)N[C@H]3C(=O)N[C@H](C(=O)N[C@H](C(=O)O)c4cc(O)cc(O)c4-c4cc3ccc4O)[C@H](O)c3ccc(c(Cl)c3)Oc3cc2cc(c3O[C@@H]2O[C@H](CO)[C@@H](O)[C@H](O)[C@H]2O[C@H]2C[C@](C)(N)[C@H](O)[C@H](C)O2)Oc2ccc(cc2Cl)[C@H]1O` [VANCOMYCIN], the result in the data set with Staphylococcus aureus [9] was Active. This molecule also gave an HC50 in [2] greater than 256 µg/mL. The molecule further returned an MIC against Enterococcus faecalis of 2 µg/mL (≈ 1.38 µM). Further, in the data set with Staphylococcus aureus [10], the Activity came out at 0.9 log10CFU/mg.
